Results from patent US12194027B2, “Small molecule inhibitors of GPCR GPR68 and related receptors for treating cancer, glioblastoma, and other indications” (UNIVERSITY OF MARYLAND, BALTIMORE, priority 2019, dated 2025).

These molecules were tested on U87glioblastoma cells (assay: 3D tumoroid growth over time with GPR68 modulators). Conditions: 10 μM/20 μM, imaged every 12 hours.
Format: cell-based
Experimental: A GPR68-positive allosteric modulator, Ogerin, was tested. U87glioblastoma cells were plated in low attachment round bottom 96-well plates and allowed to form tumor spheroids for 3 days (T0). These spheroids were treated with Vehicle (DMSO), 10 μM/20 μM Ogerin or 10 μM/20 μM Ogremorphin (OGM2). The spheroids were placed in the Lionheart™ HCS equipped with environmental control (5% CO2 at 37° C.) and imaged every 12 hours.

SMILES | growth in 3D tumoroid culture
Nc1nc(NCc2ccccc2)nc(-c2ccccc2CO)n1 [Ogerin] | Stimulates Growth

These molecules were tested on zebrafish embryo (assay: zebrafish embryo phenotype (pigmentation, morphology)). Conditions: concentrations up to 200× the IC50.
Format: in vivo

SMILES | zebrafish phenotype
Cc1noc(-c2ccc(CSCCC(=O)O)cc2)c1NC(=O)OC(C)c1ccccc1Cl (centres unmarked) [LPAi, reference compound] | failed to induce a noticeable phenotype
COc1cc(Br)c(S(=O)(=O)Nc2ccc(Cl)c(O[C@@H]3CCN(C)C3)c2)cc1OC [UT2i, reference compound] | failed to induce a noticeable phenotype

These molecules were tested against Lpa1 (Homo sapiens (Human), UniProt Q92633) (assay: Lpa1 activity of OGM analogs (Table 5)). Conditions: not given.
Format: cell-based

Lpa1, sequence (Q92633 whole entry, species assumed): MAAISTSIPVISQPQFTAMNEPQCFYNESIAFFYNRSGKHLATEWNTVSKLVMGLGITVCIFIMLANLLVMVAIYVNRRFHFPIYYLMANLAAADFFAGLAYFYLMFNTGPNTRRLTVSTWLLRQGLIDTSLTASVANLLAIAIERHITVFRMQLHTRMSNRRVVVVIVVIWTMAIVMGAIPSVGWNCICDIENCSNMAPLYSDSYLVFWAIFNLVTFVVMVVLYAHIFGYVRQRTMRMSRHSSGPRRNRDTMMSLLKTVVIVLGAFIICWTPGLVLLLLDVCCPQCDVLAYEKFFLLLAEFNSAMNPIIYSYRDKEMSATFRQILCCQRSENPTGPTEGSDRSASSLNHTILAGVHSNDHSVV

SMILES | IC50 [nM]
Cc1noc(-c2ccc(CSCCC(=O)O)cc2)c1NC(=O)OC(C)c1ccccc1Cl (centres unmarked) [LPAi, reference compound] | 250
Cc1ccc2c(c1)C1(NN=C(c3ccccc3)S1)C(=O)N2 (centres unmarked) [OGM3] | 6400
CCc1ccc2c(c1)C1(NN=C(c3ccccc3O)S1)C(=O)N2 (centres unmarked) [OGM4] | 1400

The molecules below were run on WM115 melanoma cell line (assay: scratch assay for migration, WM115). Conditions: OGM 5 μM, EIPA 10 μM, 20 hours.
Format: cell-based, human
Experimental: (§1) Cells were grown to confluence and the cells were denuded with a P200 tip. A medium change was done to add fresh medium, remove loose cells and add compounds OGM (5 μM) and EIPA (10 μM). The area of the scratch was observed 20 hours later.
(§2) Since there are numerous parallels are found between neural crest cells and cancer during migration, we examined whether OGM could inhibit the migration of cells in human melanoma cell lines (Oppitz et al., 2007; Schriek et al., 2005; Sinnberg et al., 2018). […] A2058, MeWo and WM115 cells were grown to confluence and a stripe of cells were denuded with a p200 pipette tip “scratch” and rinsed with PBS. Cells were treated with OGM or EIPA, or DMSO and incubated in low serum media. Imaging was done at 30 minutes after “scratch” and then 20 hours afterwards. Areas were then measured and normalized to the initial area.
(§3) Previous studies with the MV3 melanoma cell line have shown that disruption of proton efflux with EIPA inhibition of NHE1 can also reduce melanoma motility (Ludwig et al., 2013; Schneider et al., 2009; Stock et al., 2007, 2005; Stüwe et al., 2007). […] Although the expression of GPR68 and other proton-sensing receptors have been characterized in various skin cancers (Merkel cell carcinoma, dermatofibrosarcoma protuberans, atypical fibroxanthoma, and pleomorphic dermal sarcoma), expression in melanoma cell lines has not investigated (Nassios et al., 2019).

SMILES | migration in scratch assay
CCN(c1nc(N)c(C(=O)NC(=N)N)nc1Cl)C(C)C [EIPA, reference compound] | inhibited migration

These molecules were tested against GPR68/OGR1 (Homo sapiens (Human), UniProt Q15743) (assay: inhibition of GPR68/OGR1 in CHEM1-OGR1 cells, Fluo-8 calcium response to acidified media). Conditions: acidified media pH 6.4, Fluo-8.
Format: cell-based
Experimental: Briefly, the methods were: On the day before the assay 20,000 cells per well of CHEM1-OGR1 cells were plated in 10% DMEM containing 10% FBS and 1% Pen/Strep into a 96 well plate. After 24 hours media was removed and cells were stained with 80 uL Fluo-8 calcium indicator dye according to manufacturer's protocol. After staining cells were treated with 20 uL of 4× concentration of test compounds. Using kinetic imaging in the Lionheart HCS fluorescence intensity was continuously measure at 10 frames per second, for 5 seconds before 100 μL of acidified media was added to the well resulting in a pH of 6.4. A ratio of fluorescence intensities prior to addition and at peak were calculated and averaged. The resulting data were platted and using a 4 parameter logistic regression EC50 for each test compound was determined.

GPR68/OGR1, sequence (Q15743 whole entry): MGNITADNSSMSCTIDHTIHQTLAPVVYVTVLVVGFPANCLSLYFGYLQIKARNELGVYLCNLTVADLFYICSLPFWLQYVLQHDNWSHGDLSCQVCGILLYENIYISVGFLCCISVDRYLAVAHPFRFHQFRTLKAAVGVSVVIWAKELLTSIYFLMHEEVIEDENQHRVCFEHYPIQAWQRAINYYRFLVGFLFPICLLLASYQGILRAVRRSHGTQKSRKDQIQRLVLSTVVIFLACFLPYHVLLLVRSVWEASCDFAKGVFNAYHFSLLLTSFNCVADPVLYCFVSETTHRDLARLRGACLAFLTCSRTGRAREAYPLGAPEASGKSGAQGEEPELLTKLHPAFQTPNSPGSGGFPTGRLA

SMILES | EC50 [nM]
CCc1ccc2c(c1)C1(NN=C(c3cccc4ccccc34)S1)C(=O)N2 (centres unmarked) [OGM1] | 170
O=C1Nc2ccc(Cl)cc2C12NN=C(c1ccccc1)S2 (centres unmarked) [OGM7] | 1620
O=C1Nc2ccccc2C12NN=C(c1ccc(Cl)cc1)S2 (centres unmarked) [OGM13] | < 400
COc1ccc(C2=NNC3(S2)C(=O)Nc2ccc(OC)cc23)cc1 (centres unmarked) [OGM17] | 900
Cc1ccc(C2=NNC3(S2)C(=O)Nc2ccc(F)cc23)cc1 (centres unmarked) [OGM18] | 985
O=C1Nc2ccc(Cl)cc2C12NN=C(c1ccc(Cl)cc1)S2 (centres unmarked) [OGM19] | < 400
O=C1Nc2ccc(Cl)cc2C12NN=C(c1ccc(F)cc1)S2 (centres unmarked) [OGM21] | 796
COc1ccc2c(c1)C1(NN=C(c3ccc(Cl)cc3)S1)C(=O)N2 (centres unmarked) [OGM22] | < 400
O=C1Nc2ccc(Cl)cc2C12NN=C(c1cccc3ccccc13)S2 (centres unmarked) [OGM23] | 5040
COc1ccc2cc(C3=NNC4(S3)C(=O)Nc3ccc(Cl)cc34)ccc2c1 (centres unmarked) [OGM24] | 45900
COc1ccc2cc(C3=NNC4(S3)C(=O)Nc3ccc(F)cc34)ccc2c1 (centres unmarked) [OGM26] | 708
CCc1ccc2c(c1)C1(NN=C(c3ccc4cc(OC)ccc4c3)S1)C(=O)N2 (centres unmarked) [OGM27] | > 10000
CCc1ccc2c(c1)C1(NN=C(c3ccc(OC)cc3)S1)C(=O)N2 (centres unmarked) [OGM28] | > 10000
COc1ccc(C2=NNC3(S2)C(=O)N(CC=C(C)C)c2ccc(Cl)cc23)cc1 (centres unmarked) [OGM29] | > 10000
COc1ccc(C2=NNC3(S2)C(=O)N(CC=C(C)C)c2ccccc23)cc1 (centres unmarked) [OGM30] | > 10000
CC(C)=CCN1C(=O)C2(NN=C(c3cccc4ccccc34)S2)c2cc(Cl)ccc21 (centres unmarked) [OGM32] | > 10000
CC(C)=CCN1C(=O)C2(NN=C(c3cccc4ccccc34)S2)c2ccccc21 (centres unmarked) [OGM33] | > 10000

SMILES | EC50 [nM]
COc1ccc2cc(C3=NNC4(S3)C(=O)N(CC=C(C)C)c3ccccc34)ccc2c1 (centres unmarked) [OGM34] | > 10000
COc1ccc2cc(C3=NNC4(S3)C(=O)N(CC=C(C)C)c3ccc(Cl)cc34)ccc2c1 (centres unmarked) [OGM35] | > 10000
COc1ccc2c(c1)C1(NN=C(c3cccc4cccnc34)S1)C(=O)N2 (centres unmarked) [OGM38] | 3690
COc1ccc2c(c1)C1(NN=C(c3ccc4ncccc4c3)S1)C(=O)N2 (centres unmarked) [OGM43] | > 10000
COC(=O)c1ccc2c(c1)C1(NN=C(c3cccc4cccnc34)S1)C(=O)N2 (centres unmarked) [OGM44] | 2920
O=C1Nc2ccc(F)cc2C12NN=C(c1ccc3ncccc3c1)S2 (centres unmarked) [OGM45, 5-fluoro-5′-(quinolin-6-yl)-1,2-dihydro-3′H-spiro[indole-3,2′-[1,3,4]thiadiazol]-2-one] | 10000
COC(=O)c1ccc2c(c1)C1(NN=C(c3cccnc3)S1)C(=O)N2 (centres unmarked) [OGM47] | > 10000
CCc1ccc2c(c1)C1(NN=C(c3cccnc3)S1)C(=O)N2 (centres unmarked) [OGM48] | > 10000
CCc1ccc2c(c1)C1(NN=C(c3ccnc(OC)c3)S1)C(=O)N2 (centres unmarked) [OGM49, 5-ethyl-5′-(2-methoxypyridin-4-yl)-1,2-dihydro-3′H-spiro[indole-3,2′-[1,3,4]thiadiazol]-2-one: 2,2,2-trifluoroacetic Acid] | 1090
COc1ccc2c(c1)C1(NN=C(c3cccnc3)S1)C(=O)N2 (centres unmarked) [OGM50] | 1860
COc1ccc2c(c1)NC(=O)C21NN=C(c2ccnc(OC)c2)S1 (centres unmarked) [OGM51] | 1440
NS(=O)(=O)c1ccc2c(c1)C1(NN=C(c3ccccc3)S1)C(=O)N2 (centres unmarked) [OGM52] | 822
NS(=O)(=O)c1ccc2c(c1)C1(NN=C(c3cccnc3)S1)C(=O)N2 (centres unmarked) [OGM53] | 900
COc1cc(C2=NNC3(S2)C(=O)Nc2ccc(F)cc23)ccn1 (centres unmarked) [OGM57] | 805
CCc1ccc2c(c1)C1(NN=C(c3cccc4cccnc34)S1)C(=O)N2 (centres unmarked) [OGM58] | < 400
CCc1ccc2c(c1)C1(NN=C(c3ccncc3)S1)C(=O)N2 (centres unmarked) [OGM60] | < 400

Each molecule was assayed against GPR68 (Homo sapiens (Human), UniProt Q15743) (assay: GPR68 inhibitory activity of OGM analogs (Table 5)). Conditions: not given.
Format: cell-based
Experimental: GPCR profiling assays were performed by Millipore (St. Louis, MO) using in cells expressing Gα15, a promiscuous G protein that enhances GPCR coupling to downstream Ca2+ signaling pathways.
Since GPCRs represent >30% of targets for FDA-approved small molecules and are known to modulate cell migration, activity against 158 GPCRs was assessed based on their chemical structures. GPCRs (158) were tested for agonist and antagonist activity at 10 μM. […] Chemical segregation analysis of zebrafish phenotype was conducted to further identify the inhibitory activity responsible for the zebrafish phenotype. […] The identities of the R groups in FIG. 2B are shown below in Table 5.
Chem1-GPR68 reporter cells were treated with 20 uM OM8345 for 2 hours and then rinsed with HBSS. […] The GPR68 inhibitory activity of OGM analogs segregated with the ability of the molecule to induce the phenotype in zebrafish. Neural crest progenitors labeled with In situ hybridization of FoxD3 show normal formation of the progenitor pool.

GPR68, sequence (Q15743 whole entry, looked up): as the sequence (Q15743 whole entry) above

SMILES | IC50 [nM]
CCc1ccc2c(c1)C1(NN=C(c3cccc4ccccc34)S1)C(=O)N2 (centres unmarked) [OGM1] | 160
Cc1ccc2c(c1)C1(NN=C(c3ccccc3)S1)C(=O)N2 (centres unmarked) [OGM3] | 760
CCc1ccc2c(c1)C1(NN=C(c3ccccc3O)S1)C(=O)N2 (centres unmarked) [OGM4] | 3400
CN1C(=O)C2(NN=C(c3ccccc3)S2)c2ccccc21 (centres unmarked) [OGM5] | 810
CN1C(=O)C2(NN=C(c3cccc4ccccc34)S2)c2ccccc21 (centres unmarked) [OGM6] | 1500

What follows are molecules tested on A2058 melanoma cell line (assay: scratch assay for migration, A2058). Conditions: OGM 5 μM, EIPA 10 μM, 20 hours.
Format: cell-based, human
Experimental: as §1, §2, §3

SMILES | migration in scratch assay
CCN(c1nc(N)c(C(=O)NC(=N)N)nc1Cl)C(C)C [EIPA, reference compound] | inhibited migration

Each molecule was assayed on MeWo melanoma cell line (assay: scratch assay for migration, MeWo). Conditions: OGM 5 μM, EIPA 10 μM, 20 hours.
Format: cell-based, human
Experimental: as §1, §2, §3

SMILES | migration in scratch assay
CCN(c1nc(N)c(C(=O)NC(=N)N)nc1Cl)C(C)C [EIPA, reference compound] | refractory to the inhibition
